Values of other authors, collected in patent publication US20220056154A1, “Bispecific Antibody Compositions and Methods for Treating COVID-19” (priority 2020, published 2022).

Target: hACE2 (Homo sapiens, UniProt Q9BYF1)
Conditions: 10 μM lisinopril, 10 μM captopril, 10 μM enalaprilat, 100 μM benzyl succinate, 10 mM EDTA; 100 μM angiotensin II; 37° C., 2 hours

Sequence of hACE2 (Q9BYF1 18-805): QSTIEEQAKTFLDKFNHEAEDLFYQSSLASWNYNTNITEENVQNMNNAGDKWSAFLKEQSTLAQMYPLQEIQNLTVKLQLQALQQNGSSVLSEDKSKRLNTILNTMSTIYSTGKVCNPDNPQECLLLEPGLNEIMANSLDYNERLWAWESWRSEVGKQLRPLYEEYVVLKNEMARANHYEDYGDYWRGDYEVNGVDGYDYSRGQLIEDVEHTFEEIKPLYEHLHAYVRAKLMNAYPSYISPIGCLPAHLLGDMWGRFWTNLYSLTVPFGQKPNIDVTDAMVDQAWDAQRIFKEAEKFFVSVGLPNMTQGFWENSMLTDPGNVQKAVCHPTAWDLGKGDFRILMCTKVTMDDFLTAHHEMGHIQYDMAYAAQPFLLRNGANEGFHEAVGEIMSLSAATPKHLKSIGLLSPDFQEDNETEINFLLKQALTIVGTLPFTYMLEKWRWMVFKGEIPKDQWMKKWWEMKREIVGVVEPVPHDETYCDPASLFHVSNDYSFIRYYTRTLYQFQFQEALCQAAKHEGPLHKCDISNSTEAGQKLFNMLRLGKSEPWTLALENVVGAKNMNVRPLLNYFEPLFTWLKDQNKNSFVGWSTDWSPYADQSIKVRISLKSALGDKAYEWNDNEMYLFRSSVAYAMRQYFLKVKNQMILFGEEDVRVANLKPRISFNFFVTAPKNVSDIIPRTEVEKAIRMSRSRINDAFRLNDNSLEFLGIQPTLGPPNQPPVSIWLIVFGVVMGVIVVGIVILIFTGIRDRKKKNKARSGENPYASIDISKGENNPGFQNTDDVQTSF

SMILES | inhibition of hACE2 activity (angiotensin II cleavage)
O=C(O)CN(CCN(CC(=O)O)CC(=O)O)CC(=O)O [EDTA] | inhibits hACE2 activity
O=C(O)CC(Cc1ccccc1)C(=O)O (centres unmarked) [benzyl succinate] | none of lisinopril, captopril, enalaprilat, and benzyl succinate (a carboxypeptidase A inhibitor) inhibits hACE2 activity
